According to patent US8247380B2, “Alpha 1-acid glycoprotein, alpha 2-HS glycoprotein, alpha 1-antitrypsin, and fragments thereof induce apoptosis in cancer cell lines” (Ambryx Biotechnology, D.C., priority 1997, dated 2012):
No end group written: not given here.

Columns and labels:
[1] = tested on: LNCaP (prostate cancer) cells; assay: Cell death (apoptosis) assay, LNCaP cells; assay type: cell-based, human; settings: for apoptotic activity / membrane blebbing (in words): chemically synthesized peptide, three (3) hours of incubation
Experimental: […] The free Zinc Acetate and Barium Acetate were removed by repetitive concentration. Fetuin was tested in LNCaP and HL-60 cells. […] Fetuin (in 10 μl PBS) at concentration of 100 ng/ml was added 3-4 hours after the cells were seeded.

[2] = tested on: CCD-18 Co (human normal colon fibroblast); assay: Apoptosis assay, CCD-18 Co cells; assay type: cell-based; settings: various concentrations of SEQ ID NO: 1
Source text: Zinc charged alpha 1-acid glycoprotein has no effect on CCD 18Co cells (human normal colon fibroblast).

[3] = tested on: HT-29 (human colon adenocarcinoma); assay: Apoptosis assay, HT-29 cells; settings: for apoptotic activity / morphology (in words): 5 μM, 4 hours
Experimental: Prostate cancer cell line LNCAP was routinely used for the isolation of Apogen P-1 and Apogen P-2, whereas leukemia cell line HL-60 was used for the isolation of Apogen L. The methods of assays were as follows: LNCAP or HL-60 (1,000 cells) was seeded in 10 microliters RPMI containing 15% or 20% Fetal bovine serum, penicillin and streptomycin at 37 degrees, 5% CO2 in Microtray plates (25 μl wells, Robbins Scientific Corp.). The tested sample (10 μl) was added 3-4 hours after cells were seeded. After incubation of the tested sample with cells for 15 hours, two microliters of Hoechst dye (0.03 ng/ml in PBS) was added. Two hours later, cells that were stained with Hoechst dye were examined under fluorescence microscope. […] The percentage of apoptotic cells was calculated by the following equation:
The DNA condensation, DNA fragmentation and peripheral crescents of the nuclei are characteristics of a cell under apoptosis.

cancer cell lines = assay: Apoptosis assay, cancer cells (cell line not given); assay type: cell-based
[4] = various concentrations of SEQ ID NO: 1

HTFSGVASVE [SEQ ID NO: 1, H-T-F-S-G-V-A-S-V-E]
apoptotic activity / membrane blebbing (in words) [1]: caused membrane “blebbing”
potency relative to fetuin prepared from other methods ([1]; estimate): several thousand times
potency relative to Supercharged Zinc Fetuin ([1]; estimate, see FIG. 13): eight to ten times
induction of apoptosis (in words) [1, 4]: induced apoptosis
induction of apoptosis (in words) [2]: without affecting
induced apoptosis ([3]; 0.4 μM, four (4) hours): 52%
cells induced to apoptosis (in words) ([3]; 0.4 μM, six (6) hours): almost all
induction of apoptosis (in words) [3, 4]: induced apoptosis

S-A-S-G-E-A-F-H (SASGEAFH; Polypeptide fragment from treatment of fetuin from bovine sera as described in the specification.) [SEQ ID NO: 2, chemically synthesized bovine fetuin fragment, amino acid no; 310-317]
apoptotic activity / membrane blebbing (in words) [1]: did not show any apoptotic activity

alpha 1-acid glycoprotein (without zinc): alpha 1-acid glycoprotein pre-incubated with EDTA without recharging with zinc [reference compound]
apoptotic activity / morphology (in words) [3]: no apoptotic activity was seen
induction of apoptosis in cancer/tumor cell lines (in words) (cancer cell lines): failed to induce apoptosis

alpha 1-acid glycoprotein purchased from Sigma, after zinc charging: commercial alpha 1-acid glycoprotein after zinc charging
induction of apoptosis in cancer/tumor cell lines (in words) (cancer cell lines): contained the same activity

alpha 1-antitrypsin (without zinc): alpha 1-antitrypsin pre-incubated with EDTA without recharging with zinc [reference compound]
apoptotic activity / morphology (in words) [3]: no apoptotic activity was seen
induction of apoptosis in cancer/tumor cell lines (in words) (cancer cell lines): failed to induce apoptosis

calcium charged alpha 1-acid glycoprotein: alpha 1-acid glycoprotein pre-incubated with EDTA and recharged with calcium [reference compound]
apoptotic activity / morphology (in words) [3]: no apoptotic activity was seen

calcium charged alpha 1-antitrypsin: alpha 1-antitrypsin pre-incubated with EDTA and recharged with calcium [reference compound]
apoptotic activity / morphology (in words) [3]: no apoptotic activity was seen

B1: alpha 2-HS glycoprotein (without zinc): alpha 2-HS glycoprotein pre-incubated with EDTA without recharging with zinc (protein, UniProt P02765 19-300; P02765 341-367, looked up)
Alpha-2-HS-glycoprotein chain … 1: APHGPGLIYRQPNCDDPETEEAALVAIDYINQNLPWGYKHTLNQIDEVKVWPQQPSGELFEIEIDTLETTCHVLDPTPVARCSVRQLKEHAVEGDCDFQLLKLDGKFSVVYAKCDSSPDSAEDVRKVCQDCPLLAPLNDTRVVHAAKAALAAFNAQNNGSNFQLEEISRAQLVPLPPSTYVEFTVSGTDCVAKEATEAAKCNLLAEKQYGFCKATLSEKLGGAEVAVTCMVFQTQPVSSQPQPEGANEAVPTPVVDPDAPPSPPLGAPGLPPAGSPPDSHVL
Alpha-2-HS-glycoprotein chain … 2: TVVQPSVGAAAGPVVPPCPGRIRHFKV
modifications: EDTA treated
notes: alpha 2-HS glycoprotein pre-incubated with EDTA without recharging with zinc
apoptotic activity / morphology (in words) [3]: no apoptotic activity was seen
induction of apoptosis in cancer/tumor cell lines (in words) (cancer cell lines): fails to induce apoptosis

B2: calcium charged alpha 2-HS glycoprotein: alpha 2-HS glycoprotein pre-incubated with EDTA and recharged with calcium (protein, UniProt P02765 19-300; P02765 341-367, looked up)
Alpha-2-HS-glycoprotein chain … 1: B1 Alpha-2-HS-glycoprotein chain … 1
Alpha-2-HS-glycoprotein chain … 2: TVVQPSVGAAAGPVVPPCPGRIRHFKV
modifications: calcium charged
apoptotic activity / morphology (in words) [3]: no apoptotic activity was seen

B3: Fetuin purchased from Sigma: commercial fetuin prepared by ammonium sulfate precipitation and EDTA treatment (protein, UniProt P12763 19-359, looked up)
Alpha-2-HS-glycoprotein: IPLDPVAGYKEPACDDPDTEQAALAAVDYINKHLPRGYKHTLNQIDSVKVWPRRPTGEVYDIEIDTLETTCHVLDPTPLANCSVRQQTQHAVEGDCDIHVLKQDGQFSVLFTKCDSSPDSAEDVRKLCPDCPLLAPLNDSRVVHAVEVALATFNAESNGSYLQLVEISRAQFVPLPVSVSVEFAVAATDCIAKEVVDPTKCNLLAEKQYGFCKGSVIQKALGGEDVRVTCTLFQTQPVIPQPQPDGAEAEAPSAVPDAAGPTPSAAGPPVASVVVGPSVVAVPLPLHRAHYDLRHTFSGVASVESSSGEAFHVGKTPIVGQPSIPGGPVRLCPGRIRYFKI
concentration at which apoptosis inducing activity was observed ([1]; long incubation time (2 days)): > 250 µg/mL
concentration at which apoptosis was induced ([1]; long incubation time (2 days)): > 5 mM
induction of apoptosis in cancer/tumor cell lines (in words) (cancer cell lines): very low activity

B4: E. Coli-expressed fetuin: recombinant bovine fetuin expressed in E. Coli (protein, UniProt P12763 19-359, looked up)
Alpha-2-HS-glycoprotein: B3 Alpha-2-HS-glycoprotein
modifications: expressed in E. coli
apoptotic activity relative to supercharged zinc fetuin (Section 4F) (cancer cell lines): about 5 times

B5: Fetuin-Ca: fetuin bound with calcium (protein, UniProt P12763 19-359, looked up)
Alpha-2-HS-glycoprotein: B3 Alpha-2-HS-glycoprotein
modifications: calcium bound
induction of apoptosis in cancer/tumor cell lines (in words) (cancer cell lines): inactive in inducing apoptosis

B6: natural fetuin: natural fetuin whose carbohydrate moiety was removed by certain enzymes (protein, UniProt P12763 19-359, looked up)
Alpha-2-HS-glycoprotein: B3 Alpha-2-HS-glycoprotein
modifications: deglycosylated
notes: natural fetuin whose carbohydrate moiety was removed by certain enzymes
boost of apoptotic inducing activity when carbohydrate moiety removed by certain enzymes (cancer cell lines): 2-3 fold

B7: supercharged zinc fetuin: Section 4A fetuin stripped of ions with EDTA and reloaded with 0.5 M Zinc Acetate (protein, UniProt P12763 19-359, looked up)
Alpha-2-HS-glycoprotein: B3 Alpha-2-HS-glycoprotein
modifications: zinc charged
notes: Section 4A fetuin stripped of ions with EDTA and reloaded with 0.5 M Zinc Acetate
enhancement of ability to induce apoptosis versus original fetuin bound with zinc (Section 4A) ([1]; from LD50 on LNCaP cells incubated for 6 hours): three to four times
